As a reminder, the EC50 is the concentration needed to bring the measured effect to its halfway point. What is called Ki is a dissociation constant, usually derived from enzyme kinetics or from competition with a known ligand.

The source made the active and inactive calls. The calls are words filed in the database; no cut-off is given here.

In assay [1] the test system is SARS-CoV-2. The assay can be described thus: Antiviral activity against SARS-CoV-2 infected in African green monkey Vero E6 cells assessed as reduction in viral replication pre-infected with cells for 1 hr followed by compound treatment and measured after 3 days by RT-qPCR analysis. The format is functional, organism-based. The conditions noted are these: Severe acute respiratory syndrome coronavirus 2, Vero C1008. In general terms: Real-time PCR tracks product formation cycle by cycle.

For assay [2], the target named is Replicase polyprotein 1ab (Severe acute respiratory syndrome coronavirus 2, UniProt P0DTD1). The assay can be described thus: Inhibition of N-terminal hexa-histidine tagged SARS-CoV-2 main protease expressed in Escherichia coli BL21 (DE3) using HiLyte Fluor 488TM-ESATLQSGLRKAK-QXL520TM-NH2 as substrate by FRET assay.
In assay [3] the test system is SARS-CoV-2. The assay can be described thus: Potency index, ratio of nirmatrelvir EC50 to test compound EC50 for antiviral activity against SARS-CoV-2 infected in African green monkey Vero E6 cells assessed as reduction in viral replication pre-infected with cells for 1 hr followed by compound treatment and measured after 3 days by RT-qPCR analysis. The format is functional, Severe acute respiratory syndrome coronavirus 2. The conditions noted are these: time 3 day.

Assay [4] relates to SARS-CoV-2. As to the kind of experiment: Antiviral activity against SARS-CoV-2 WK-521 infected in African green monkey VeroE6/TMPRSS2 cells assessed as reduction in virus infectivity at 10 to 100 uM by immunocytochemistry analysis. In kind it is functional, organism-based. The conditions noted are these: Severe acute respiratory syndrome coronavirus 2, dose 10-100 µM.
The test system of assay [5] is SARS-CoV-2. The assay can be described thus: Antiviral activity against SARS-CoV-2 WK-521 infected in African green monkey VeroE6/TMPRSS2 cells assessed as reduction in virus infectivity at 1 uM by immunocytochemistry analysis. In kind it is functional, organism-based. The conditions noted are these: Severe acute respiratory syndrome coronavirus 2.

On to `CC(C)(C)NC(=O)N[C@H](C(=O)N1C[C@H]2[C@@H]([C@H]1C(=O)N[C@H](C#N)C[C@@H]1CCNC1=O)C2(C)C)C(C)(C)C`, for which the EC50 in assay [1] was 100000 nM.

In turn, `CC(C)(C)[C@H](NC(=O)C(F)(F)F)C(=O)N1C[C@H]2[C@@H]([C@H]1C(=O)N(C(=O)C(F)(F)F)[C@H](C#N)C[C@@H]1CCNC1=O)C2(C)C` yielded a Ki in assay [2] of 32300 nM. For the same compound, the 50% effective concentration (EC50) in assay [1] was found to be 100000 nM.

Compound `CC(=O)N[C@H](C(=O)N1C[C@H]2[C@@H]([C@H]1C(=O)N[C@H](C#N)C[C@@H]1CCNC1=O)C2(C)C)C(C)(C)C` returned a Ki in assay [2] of 0.44 nM. Also, in assay [1], the EC50 came to 4000 nM.

`CC(C)(C)[C@H](NC(=O)OCc1cccnc1)C(=O)N1C[C@H]2[C@@H]([C@H]1C(=O)N[C@H](C#N)C[C@@H]1CCCNC1=O)C2(C)C` came in with an inhibition constant (Ki) in assay [2] of 0.094 nM. Moreover, the concentration giving a half-maximal response (EC50) in assay [1] was determined as 3400 nM.

`CC(C)(C)[C@H](NC(=O)c1ccccc1)C(=O)N1C[C@H]2[C@@H]([C@H]1C(=O)N[C@H](C#N)C[C@@H]1CCNC1=O)C2(C)C` yielded an inhibitory constant (Ki) in assay [2] of 36.9 nM. Further, the EC50 in assay [1] was determined as 17000 nM.

`CC(C)(C)C(=O)N[C@H](C(=O)N1C[C@H]2[C@@H]([C@H]1C(=O)N[C@H](C#N)C[C@@H]1CCNC1=O)C2(C)C)C(C)(C)C` had an inhibition constant Ki in assay [2] of 22.1 nM. For the same compound, the half-maximal effective concentration (EC50) in assay [1] is 2300 nM.

In assay [2], `CC(C)(C)[C@H](NC(=O)OCc1ccccc1)C(=O)N1C[C@H]2[C@@H]([C@H]1C(=O)N[C@H](C#N)C[C@@H]1CCNC1=O)C2(C)C` came in with a Ki of 0.025 nM. Also, the concentration for a half-maximal effect (EC50) in assay [1] was 290 nM.

Regarding `CC(C)(C)[C@H](NC(=O)C(F)(F)F)C(=O)N1C[C@H]2[C@@H]([C@H]1C(=O)N[C@H](C#N)C[C@@H]1CCCNC1=O)C2(C)C`, the inhibition constant Ki in assay [2] turned out to be 0.04 nM. The EC50 in assay [1] is 260 nM. The “Ratio EC50” value in assay [3] is reported as 7. Also, in assay [4], the outcome was Active.

In assay [2], `CC(C)(C)[C@H](NC(=O)OCc1ccncc1)C(=O)N1C[C@H]2[C@@H]([C@H]1C(=O)N[C@H](C#N)C[C@@H]1CCNC1=O)C2(C)C` showed a Ki of 0.49 nM. Also, in assay [1], the EC50 was 40100 nM.

As to `CC(C)(C)[C@H](NC(=O)OCc1ccccn1)C(=O)N1C[C@H]2[C@@H]([C@H]1C(=O)N[C@H](C#N)C[C@@H]1CCNC1=O)C2(C)C`, the Ki in assay [2] was 32.2 nM. Besides, the concentration for a half-maximal effect (EC50) in assay [1] was 29700 nM.

Regarding `CC(C)(C)[C@H](NC(=O)OCc1cccnc1)C(=O)N1C[C@H]2[C@@H]([C@H]1C(=O)N[C@H](C#N)C[C@@H]1CCNC1=O)C2(C)C`, in assay [2], the affinity corresponds to a Ki of 0.09 nM. Moreover, the EC50 in assay [1] is 35 nM.

Take `CCC(CC)COC(=O)[C@H](C)N[P@](=O)(OC[C@H]1O[C@@](C#N)(c2ccc3c(N)ncnn23)[C@H](O)[C@@H]1O)Oc1ccccc1`: the EC50 in assay [1] worked out at 3200 nM.

Turning to `CC(C)(C)[C@H](NC(=O)C(Cl)(Cl)Cl)C(=O)N1C[C@H]2[C@@H]([C@H]1C(=O)N[C@H](C#N)C[C@@H]1CCNC1=O)C2(C)C`, the affinity in assay [2] corresponds to a Ki of 0.2 nM. In assay [1], the concentration giving a half-maximal response (EC50) amounted to 1600 nM.

With `CC(C)(C)[C@H](NC(=O)C(F)(F)F)C(=O)N1C[C@H]2[C@@H]([C@H]1C(=O)N[C@H](C#N)C[C@@H]1CCNC1=O)C2(C)C`, in assay [4], the result was Active. Also, the result in assay [5] was inactive.

In assay [2], `CC(C)(C)[C@H](NC(=O)C(Cl)(Cl)Cl)C(=O)N1C[C@H]2[C@@H]([C@H]1C(=O)N[C@H](C#N)C[C@@H]1CCCNC1=O)C2(C)C` yielded a Ki of 1.1 nM. Besides, in assay [1], the EC50 came to 270 nM. For the same compound, in assay [3], the “Ratio EC50” value is more than 7.

For `CC(C)(C)[C@H](NC(=O)OCc1ccncc1)C(=O)N1C[C@H]2[C@@H]([C@H]1C(=O)N[C@H](C#N)C[C@@H]1CCCNC1=O)C2(C)C`, in assay [2], the affinity corresponds to a Ki of 7.8 nM. Further, the half-maximal effective concentration (EC50) in assay [1] was 27100 nM.

The values are drawn from ChEMBL document CHEMBL5543094, “Exploration of P1 and P4 modifications of nirmatrelvir: Design, synthesis, biological evaluation, and X-ray structural studies of SARS-CoV-2 Mpro inhibitors” (Eur J Med Chem, 2024).
